ChEMBL document CHEMBL4808176, “Optimization of Truncated Glucagon Peptides to Achieve Selective, High Potency, Full Antagonists” (J Med Chem, 2021)
Active and inactive are the calls of the source. The calls are words filed in the database; no cut-off is given here. Peptide text beside a SMILES is read from it.

Tests used:
[1] = biological target: Glucagon receptor (Rattus norvegicus) (UniProt P30082); assay: Displacement of 125I-glucagon from GCGR of rat liver membrane; type: cell membranes
[2] = biological target: T1, Glucagon receptor (Homo sapiens, UniProt P47871); assay: Partial antagonist activity at human GCGR expressed in HEK293 cells assessed as inhibition of glucogon-induced cAMP production; type: functional, cell-based; conditions: filed as antagonist
T1 sequence (P47871 whole entry): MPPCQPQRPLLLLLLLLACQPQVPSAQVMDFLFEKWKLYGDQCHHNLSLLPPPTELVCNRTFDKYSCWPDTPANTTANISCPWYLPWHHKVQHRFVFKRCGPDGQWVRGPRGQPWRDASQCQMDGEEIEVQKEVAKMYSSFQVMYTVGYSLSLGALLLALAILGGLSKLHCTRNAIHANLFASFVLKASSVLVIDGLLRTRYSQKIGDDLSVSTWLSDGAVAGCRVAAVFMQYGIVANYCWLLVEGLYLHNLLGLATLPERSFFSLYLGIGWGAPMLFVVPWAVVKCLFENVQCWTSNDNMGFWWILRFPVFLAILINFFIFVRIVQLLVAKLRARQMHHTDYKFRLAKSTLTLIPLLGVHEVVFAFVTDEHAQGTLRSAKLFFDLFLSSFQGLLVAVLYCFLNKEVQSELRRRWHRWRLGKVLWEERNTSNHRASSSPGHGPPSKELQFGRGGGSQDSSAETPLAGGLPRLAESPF

[3] = biological target: T1, Glucagon receptor; assay: Antagonist activity at human GCGR expressed in HEK293 cells assessed as inhibition of glucogon-induced cAMP production by schild plot analysis; type: functional, cell-based; conditions: dose 0.1-1.6 µM
[4] = biological target: T2, Gastric inhibitory polypeptide receptor (Mus musculus, UniProt Q0P543); assay: Antagonist activity at mouse GIPR expressed in CHO-K1 cells assessed as inhibition of GIP-induced cAMP production; type: cell-based
T2 sequence (Q0P543 whole entry): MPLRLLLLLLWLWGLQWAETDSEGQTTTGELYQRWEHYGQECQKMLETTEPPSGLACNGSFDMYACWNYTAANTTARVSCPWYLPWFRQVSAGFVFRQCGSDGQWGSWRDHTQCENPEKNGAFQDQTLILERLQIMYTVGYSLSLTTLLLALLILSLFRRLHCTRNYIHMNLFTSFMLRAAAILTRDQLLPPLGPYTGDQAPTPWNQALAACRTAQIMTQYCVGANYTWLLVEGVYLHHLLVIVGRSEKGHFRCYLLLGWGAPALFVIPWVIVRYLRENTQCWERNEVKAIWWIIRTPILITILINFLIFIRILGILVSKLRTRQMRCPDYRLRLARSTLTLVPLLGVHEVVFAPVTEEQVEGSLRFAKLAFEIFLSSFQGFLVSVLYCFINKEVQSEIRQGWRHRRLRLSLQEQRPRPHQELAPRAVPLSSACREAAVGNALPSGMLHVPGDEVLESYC

[5] = biological target: T3, Gastric inhibitory polypeptide receptor (Mus musculus) (UniProt Q0P543); assay: Antagonist activity at mouse GIPR expressed in CHO-K1 cells assessed as inhibition of GIP-induced cAMP production relative to control; type: cell-based; conditions: filed as antagonist, concentration not given here
T3 sequence (whole entry): T2 sequence (Q0P543 whole entry)

[6] = biological target: T4, Gastric inhibitory polypeptide receptor (Homo sapiens) (UniProt P48546); assay: Antagonist activity at human GIPR expressed in HEK293 cells assessed as inhibition of GIP-induced cAMP production relative to control; type: functional, cell-based; conditions: filed as antagonist, concentration not given here
T4 sequence (whole entry): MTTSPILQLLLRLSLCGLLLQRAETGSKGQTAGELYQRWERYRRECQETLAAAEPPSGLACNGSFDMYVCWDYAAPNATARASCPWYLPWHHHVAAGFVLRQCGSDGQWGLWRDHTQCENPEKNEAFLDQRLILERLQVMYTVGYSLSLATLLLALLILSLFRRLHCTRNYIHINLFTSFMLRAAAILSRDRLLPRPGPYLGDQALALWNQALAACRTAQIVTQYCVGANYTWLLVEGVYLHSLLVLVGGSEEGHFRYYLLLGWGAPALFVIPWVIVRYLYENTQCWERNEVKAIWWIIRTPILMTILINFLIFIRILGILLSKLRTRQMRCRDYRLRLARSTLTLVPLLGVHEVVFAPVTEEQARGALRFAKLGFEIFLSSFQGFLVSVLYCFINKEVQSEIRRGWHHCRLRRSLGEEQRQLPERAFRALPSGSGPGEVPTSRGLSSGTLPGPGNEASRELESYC

[7] = tested on: Mus musculus; assay: Inhibition of IUB288-induced glucose elevation in C57BL/6 mouse at 1500 nmol/kg, sc pretreated for 4 to 8 hrs followed by IUB288 stimulation and measured upto 4 hrs; type: functional, organism-based; conditions: time 8-12 hrs
[8] = tested on: Mus musculus; assay: Inhibition of IUB288-induced glucose elevation in C57BL/6 mouse at 1500 nmol/kg, sc pretreated for 24 hrs followed by IUB288 stimulation and measured upto 4 hrs; type: functional, organism-based; conditions: time 28.0 hrs
[9] = Half life in C57BL/6 mouse at 1500 nmol/kg, sc measured upto 48 hrs by LC-MS analysis; type: ADME, organism-based; conditions: in vivo
[10] = biological target: T1, Glucagon receptor; assay: Antagonist activity at human GCGR expressed in HEK293 cells assessed as inhibition of glucogon-induced cAMP production; type: functional, cell-based
[11] = biological target: T1, Glucagon receptor; assay: Antagonist activity at human GCGR expressed in HEK293 cells assessed as inhibition of glucogon-induced cAMP production relative to control; type: functional, cell-based; conditions: filed as antagonist, concentration not given here
[12] = Cmax in C57BL/6 mouse at 1500 nmol/kg, sc measured upto 48 hrs by LC-MS analysis; type: ADME, organism-based; design: route subcutaneous, dose 1500 nmol/kg, time <=48; conditions: in vivo
[13] = biological target: T5, Glucagon-like peptide 1 receptor (Mus musculus, UniProt O35659); assay: Antagonist activity at mouse GLP1R expressed in CHO-K1 cells assessed as inhibition of GLP1-induced cAMP production; type: functional, cell-based
T5 sequence (O35659 whole entry): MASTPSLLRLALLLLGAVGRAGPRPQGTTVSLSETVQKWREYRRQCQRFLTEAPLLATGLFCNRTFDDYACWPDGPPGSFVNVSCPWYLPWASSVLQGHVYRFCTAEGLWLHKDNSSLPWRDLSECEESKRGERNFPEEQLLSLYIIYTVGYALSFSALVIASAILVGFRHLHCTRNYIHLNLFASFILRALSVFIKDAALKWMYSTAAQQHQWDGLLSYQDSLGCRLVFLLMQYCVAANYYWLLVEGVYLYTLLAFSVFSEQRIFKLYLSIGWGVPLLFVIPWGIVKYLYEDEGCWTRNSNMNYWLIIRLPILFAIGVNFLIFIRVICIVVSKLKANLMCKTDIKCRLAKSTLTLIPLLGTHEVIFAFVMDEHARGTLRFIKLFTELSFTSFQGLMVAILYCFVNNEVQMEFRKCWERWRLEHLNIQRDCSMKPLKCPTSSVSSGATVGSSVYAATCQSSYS

[14] = Toxicity in C57BL/6 mouse assessed as adverse local and systemic responses at 1500 nmol/kg, sc; conditions: in vivo
[15] = Chemical stability of compound in PBS buffer incubated for 5 to 7 days by LC-MS analysis; type: physicochemical; conditions: time 5-7 day
[16] = biological target: Glucagon receptor (Mus musculus) (UniProt Q61606); assay: Antagonist activity at mouse GCGR expressed in CHO-K1 cells assessed as inhibition of glucogon-induced cAMP production relative to control; type: functional, cell-based; conditions: filed as antagonist, concentration not given here
Chain of Glucagon receptor (Mus musculus) (Q61606 whole entry): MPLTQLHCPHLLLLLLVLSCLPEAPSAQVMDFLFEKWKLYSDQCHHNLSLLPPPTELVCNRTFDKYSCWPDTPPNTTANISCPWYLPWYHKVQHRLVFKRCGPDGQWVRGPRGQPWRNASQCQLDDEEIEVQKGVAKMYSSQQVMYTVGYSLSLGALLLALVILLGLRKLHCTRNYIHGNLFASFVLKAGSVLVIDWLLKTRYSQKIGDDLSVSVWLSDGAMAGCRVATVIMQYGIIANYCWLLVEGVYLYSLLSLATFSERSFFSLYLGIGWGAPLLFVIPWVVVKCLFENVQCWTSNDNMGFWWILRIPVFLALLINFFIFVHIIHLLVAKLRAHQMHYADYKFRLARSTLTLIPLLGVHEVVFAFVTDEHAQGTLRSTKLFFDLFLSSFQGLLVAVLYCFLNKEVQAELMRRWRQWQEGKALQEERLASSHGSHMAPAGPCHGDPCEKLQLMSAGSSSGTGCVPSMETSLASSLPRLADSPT

[17] = biological target: Glucagon-like peptide 1 receptor (Homo sapiens, UniProt P43220); assay: Antagonist activity at human GLP-1R expressed in HEK293 cells assessed as inhibition of GLP1-induced cAMP production; type: functional, cell-based
Chain of Glucagon-like peptide 1 receptor (Homo sapiens, UniProt P43220) (P43220 whole entry): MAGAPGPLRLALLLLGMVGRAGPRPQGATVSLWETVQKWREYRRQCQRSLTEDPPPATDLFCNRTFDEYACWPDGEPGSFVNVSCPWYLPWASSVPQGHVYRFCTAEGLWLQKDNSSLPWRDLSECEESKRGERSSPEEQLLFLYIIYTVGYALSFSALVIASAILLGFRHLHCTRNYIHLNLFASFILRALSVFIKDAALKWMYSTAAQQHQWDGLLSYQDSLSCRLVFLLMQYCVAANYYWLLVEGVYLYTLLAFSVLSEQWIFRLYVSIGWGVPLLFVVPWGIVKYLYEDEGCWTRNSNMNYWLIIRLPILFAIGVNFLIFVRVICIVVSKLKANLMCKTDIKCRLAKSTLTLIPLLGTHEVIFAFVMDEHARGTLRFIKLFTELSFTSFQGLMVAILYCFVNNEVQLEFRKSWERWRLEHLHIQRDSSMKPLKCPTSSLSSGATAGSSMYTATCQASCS

[18] = AUC in C57BL/6 mouse at 1500 nmol/kg, sc measured upto 48 hrs by LC-MS analysis; type: ADME, organism-based; design: route subcutaneous, dose 1500 nmol/kg, time <=48; conditions: in vivo
[19] = biological target: Glucagon receptor (Mus musculus, UniProt Q61606); assay: Antagonist activity at mouse GCGR expressed in CHO-K1 cells assessed as inhibition of glucogon-induced cAMP production; type: functional, cell-based
Chain of Glucagon receptor (Mus musculus, UniProt Q61606) (Q61606 whole entry): as the sequence (Q61606 whole entry) above

[20] = biological target: T6, Glucagon-like peptide 1 receptor (Mus musculus) (UniProt O35659); assay: Antagonist activity at mouse GLP1R expressed in CHO-K1 cells assessed as inhibition of GLP1-induced cAMP production relative to control; type: functional, cell-based; conditions: filed as antagonist, concentration not given here
T6 sequence (whole entry): T5 sequence (O35659 whole entry)

[21] = biological target: T7, Gastric inhibitory polypeptide receptor (Homo sapiens, UniProt P48546); assay: Antagonist activity at human GIPR expressed in HEK293 cells assessed as inhibition of GIP-induced cAMP production; type: functional, cell-based
T7 sequence (P48546 whole entry): T4 sequence (whole entry)

[22] = biological target: T1, Glucagon receptor; assay: Displacement of 125I-glucagon from human GCGR expressed in HEK293 cells membranes incubated for 6 hrs by liquid scintillation counting method; type: cell membranes, Membrane

Chain of Glucagon receptor (Rattus norvegicus) (P30082 whole entry): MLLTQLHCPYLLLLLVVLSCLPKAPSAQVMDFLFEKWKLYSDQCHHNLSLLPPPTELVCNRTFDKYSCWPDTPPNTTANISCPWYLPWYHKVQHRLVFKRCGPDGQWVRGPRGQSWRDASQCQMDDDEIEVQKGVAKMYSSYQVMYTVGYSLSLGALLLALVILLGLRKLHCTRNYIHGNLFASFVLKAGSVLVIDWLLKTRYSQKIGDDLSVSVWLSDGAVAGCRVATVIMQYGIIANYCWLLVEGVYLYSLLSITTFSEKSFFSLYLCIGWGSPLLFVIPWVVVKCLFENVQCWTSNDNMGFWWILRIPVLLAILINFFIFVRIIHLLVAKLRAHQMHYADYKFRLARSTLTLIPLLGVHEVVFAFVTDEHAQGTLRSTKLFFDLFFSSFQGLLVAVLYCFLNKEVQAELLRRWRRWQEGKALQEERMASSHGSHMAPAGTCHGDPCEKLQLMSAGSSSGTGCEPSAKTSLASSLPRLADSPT

CSCC[C@H](NC(=O)[C@H](CC(C)C)NC(=O)[C@H](Cc1c[nH]c2ccccc12)NC(=O)[C@H](CCC(N)=O)NC(=O)[C@@H](NC(=O)[C@H](Cc1ccccc1)NC(=O)[C@H](CC(=O)O)NC(=O)[C@H](CCC(N)=O)NC(=O)[C@H](C)NC(=O)[C@H](CCCN=C(N)N)NC(=O)[C@H](CCCN=C(N)N)NC(=O)[C@H](CO)NC(=O)[C@H](CC(=O)O)NC(=O)[C@H](CC(C)C)NC(=O)[C@H](Cc1ccc(O)cc1)NC(=O)[C@H](CCCCN)NC(=O)[C@H](CO)NC(=O)[C@H](Cc1ccc(O)cc1)NC(=O)[C@H](CCC(=O)O)NC(=O)[C@H](CO)NC(=O)[C@@H](NC(=O)[C@H](Cc1ccccc1)NC(=O)[C@@H](NC(=O)CNC(=O)[C@H](CCC(N)=O)NC(=O)[C@@H](N)CO)[C@@H](C)O)[C@@H](C)O)C(C)C)C(=O)N[C@@H](CC(N)=O)C(=O)N[C@H](C(N)=O)[C@@H](C)O
Activity ([1]; filed as antagonist): 41%
Activity [2]: Active
Activity [3]: inactive

CCCCCCCCCCCCCCCC(=O)N[C@@H](CCC(=O)N[C@@H](CCC(=O)NCCCC[C@H](NC(=O)[C@H](CC(=O)O)NC(=O)[C@H](CO)NC(=O)[C@@H](NC(=O)[C@@H](O)Cc1ccccc1)[C@@H](C)O)C(=O)N[C@@H](CO)C(=O)N[C@@H](CCCCN)C(=O)N[C@@H](Cc1ccc(O)cc1)C(=O)N[C@@H](CC(C)C)C(=O)N[C@@H](CC(=O)O)C(=O)N[C@@H](CO)C(=O)N[C@@H](CCCNC(=N)N)C(=O)N[C@@H](CCCNC(=N)N)C(=O)N[C@@H](C)C(=O)N[C@@H](CCC(N)=O)C(=O)N[C@@H](CC(=O)O)C(=O)N[C@@H](Cc1ccccc1)C(=O)N[C@H](C(=O)N[C@@H](CCC(N)=O)C(=O)N[C@@H](Cc1c[nH]c2ccccc12)C(=O)N[C@@H](CC(C)C)C(=O)N[C@@H](CCSC)C(=O)N[C@@H](CC(=O)O)C(=O)N[C@H](C(N)=O)[C@@H](C)O)C(C)C)C(=O)O)C(=O)O (HELM PEPTIDE1{[O=C([C@@H](O)Cc1ccccc1)[*:2]].T.S.D.K.S.K.Y.L.D.S.R.R.A.Q.D.F.V.Q.W.L.M.D.T.[am]}|PEPTIDE2{[CCCCCCCCCCCCCCCC(=O)[*:2]].[gGlu].[gGlu]}$PEPTIDE1,PEPTIDE2,5:R3-3:R2$$$V2.0)
IC50 [4]: 125 nM
inhibition [5]: 97%
inhibition [6]: 96%
inhibition [7]: Active
inhibition [8]: Active
half-life [9]: 6.73 h
IC50 [10]: 0.43 nM
inhibition [11]: 100%
Cmax [12]: 3.31 µM
IC50 [13]: 131 nM
Activity [14]: Non-Toxic
Stabilty [15]: Stable
inhibition [16]: 92%
IC50 [17]: 99 nM
AUC at 48 h [18]: 37.4 µM·h
IC50 [19]: 0.53 nM
inhibition [20]: 99%
IC50 [21]: 60 nM

CSCC[C@H](NC(=O)[C@H](CC(C)C)NC(=O)[C@H](Cc1c[nH]c2ccccc12)NC(=O)[C@H](CCC(N)=O)NC(=O)[C@@H](NC(=O)[C@H](Cc1ccccc1)NC(=O)[C@H](CC(=O)O)NC(=O)[C@H](CCC(N)=O)NC(=O)[C@H](C)NC(=O)[C@H](CCCNC(=N)N)NC(=O)[C@H](CCCNC(=N)N)NC(=O)[C@H](CO)NC(=O)[C@H](CC(=O)O)NC(=O)[C@H](CC(C)C)NC(=O)[C@H](Cc1ccc(O)cc1)NC(=O)[C@H](CCCCN)NC(=O)[C@H](CO)NC(=O)[C@H](Cc1ccc(O)cc1)NC(=O)[C@H](CCC(=O)O)NC(=O)[C@H](CO)NC(=O)[C@@H](NC(=O)[C@@H](O)Cc1ccccc1)[C@@H](C)O)C(C)C)C(=O)N[C@@H](CC(N)=O)C(=O)N[C@H](C(N)=O)[C@@H](C)O (HELM PEPTIDE1{[O=C([C@@H](O)Cc1ccccc1)[*:2]].T.S.E.Y.S.K.Y.L.D.S.R.R.A.Q.D.F.V.Q.W.L.M.N.T.[am]}$$$$V2.0)
IC50 [10]: 40 nM
Activity ([3]; filed as antagonist): Dose-Dependent Effect

H-FTSEYSKYLDSRRAQDFVQWLMNT-NH2
IC50 [10]: 79.1 nM
Activity ([3]; filed as antagonist): Dose-Dependent Effect

H-LTFTSEYSKYLDSRRAQDFVQWLMNT-NH2
Activity [2]: Active
Activity [3]: inactive

H-TSEYSKYLDSRRAQDFVQWLMNT-NH2
IC50 [22]: 10000 nM
Activity [1]: 0.33%
